In PubChem BioAssay AID248 (DTP/NCI, 2004):
Where “and” joins values, the source holds several entries; their conditions need not be identical. Identical values can stand only once. Inconclusive results and toxic doses are left out. No stated cut-off is given here; in the data, active means T/C of 150% or more; inactive means T/C below 125%.

System: L1210 leukemia ip in BDF1 mice, survival T/C
Assay: NCI In Vivo Anticancer Drug Screen. Data for tumor model L1210 Leukemia (intraperitoneal) in B6D2F1 (BDF1) mice
Conditions: endpoint: mean survival time, higher = longer survival
How it was run: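 Value reflects the ratio of survival in compound-treated mice to survival in vehicle-treated controls, with both groups carrying the same transplanted tumor.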

[1] = dose: 400.0 mg/kg/injection, schedule: Q01DX001 (ip), vehicle: Klucel (hydroxypropylcellulose) (HPC)

Measured: T/C

C=COCC(C)C (tested in a mixture with another compound)
inactive: dose: 1.56 mg/kg/injection, schedule: Q01DX001 (ip), vehicle: other 94 % of control | dose: 3.12 mg/kg/injection, schedule: Q01DX001 (ip), vehicle: other 91 % of control | dose: 3.12 mg/kg/injection, schedule: Q01DX009 (ip), vehicle: other 109 % of control | dose: 3.12 mg/kg/injection, schedule: Q04DX003 (ip), vehicle: Klucel (hydroxypropylcellulose) (HPC) 97 % of control | dose: 3.13 mg/kg/injection, schedule: Q04DX003 (ip), vehicle: saline 92 % of control | dose: 4.7 mg/kg/injection, schedule: Q01DX009 (ip), vehicle: saline 104 % of control | dose: 6.25 mg/kg/injection, schedule: Q01DX001 (ip), vehicle: other 96 % of control | dose: 6.25 mg/kg/injection, schedule: Q01DX009 (ip), vehicle: Klucel (hydroxypropylcellulose) (HPC) 107 % of control | dose: 6.25 mg/kg/injection, schedule: Q01DX009 (ip), vehicle: other 98 % of control | dose: 6.25 mg/kg/injection, schedule: Q04DX003 (ip), vehicle: Klucel (hydroxypropylcellulose) (HPC) 114 % of control | dose: 6.25 mg/kg/injection, schedule: Q04DX003 (ip), vehicle: saline 94 % of control | dose: 7.09 mg/kg/injection, schedule: Q01DX009 (ip), vehicle: Klucel (hydroxypropylcellulose) (HPC) 107 % of control | dose: 9.4 mg/kg/injection, schedule: Q01DX009 (ip), vehicle: saline 102 % of control | dose: 10.6 mg/kg/injection, schedule: Q01DX009 (ip), vehicle: Klucel (hydroxypropylcellulose) (HPC) 107 % of control | dose: 12.5 mg/kg/injection, schedule: Q01DX009 (ip), vehicle: Klucel (hydroxypropylcellulose) (HPC) 93 % of control | dose: 12.5 mg/kg/injection, schedule: Q04DX003 (ip), vehicle: Klucel (hydroxypropylcellulose) (HPC) 111 % of control | dose: 15.0 mg/kg/injection, schedule: Q01DX001 (ip), vehicle: saline 109 % of control | dose: 25.0 mg/kg/injection, schedule: Q04DX003 (ip), vehicle: Klucel (hydroxypropylcellulose) (HPC) 88 % of control | dose: 30.0 mg/kg/injection, schedule: Q01DX001 (ip), vehicle: saline 112 % of control | dose: 60.0 mg/kg/injection, schedule: Q01DX001 (ip), vehicle: saline 95 % of control | dose: 75.0 mg/kg/injection, schedule: Q01DX001 (ip), vehicle: carboxymethylcellulose (CMC) 95 % of control | dose: 75.0 mg/kg/injection, schedule: Q04DX003 (ip), vehicle: saline 108 % of control and 110 % of control | dose: 100.0 mg/kg/injection, schedule: Q01DX001 (ip), vehicle: other 106 % of control and 94 % of control | dose: 150.0 mg/kg/injection, schedule: Q01DX001 (ip), vehicle: carboxymethylcellulose (CMC) 114 % of control | dose: 150.0 mg/kg/injection, schedule: Q04DX003 (ip), vehicle: saline 98 % of control | dose: 300.0 mg/kg/injection, schedule: Q01DX001 (ip), vehicle: carboxymethylcellulose (CMC) 100 % of control | [1] 92 % of control

CCOC(=O)c1nc2c(C)nc(N(C)C)nc2n(C)c1=O
inactive: dose: 100.0 mg/kg/injection, schedule: Q01DX001 (ip), vehicle: Klucel (hydroxypropylcellulose) (HPC) 100 % of control | dose: 200.0 mg/kg/injection, schedule: Q01DX001 (ip), vehicle: Klucel (hydroxypropylcellulose) (HPC) 97 % of control | [1] 94 % of control

c1ccc2c(OCCN3CC3)nccc2c1
inactive: dose: 100.0 mg/kg/injection, schedule: Q01DX001 (ip), vehicle: carboxymethylcellulose (CMC) 103 % of control | dose: 200.0 mg/kg/injection, schedule: Q01DX001 (ip), vehicle: carboxymethylcellulose (CMC) 113 % of control

O=C(CSc1cc(Cl)c(Cl)cc1Cl)Nc1ccccc1Br
inactive: dose: 50.0 mg/kg/injection, schedule: Q01DX009 (ip), vehicle: saline with Tween-80 94 % of control | dose: 100.0 mg/kg/injection, schedule: Q01DX009 (ip), vehicle: saline with Tween-80 97 % of control | dose: 200.0 mg/kg/injection, schedule: Q01DX009 (ip), vehicle: saline with Tween-80 87 % of control

CC(=O)c1ccc(NC(N)=S)cc1
inactive: dose: 5.0 mg/kg/injection, schedule: Q01DX009 (ip), vehicle: saline with Tween-80 88 % of control | dose: 10.0 mg/kg/injection, schedule: Q01DX009 (ip), vehicle: saline with Tween-80 98 % of control | dose: 20.0 mg/kg/injection, schedule: Q01DX009 (ip), vehicle: saline with Tween-80 103 % of control and 90 % of control | dose: 40.0 mg/kg/injection, schedule: Q01DX009 (ip), vehicle: saline with Tween-80 97 % of control and 104 % of control | dose: 80.0 mg/kg/injection, schedule: Q01DX009 (ip), vehicle: saline with Tween-80 91 % of control

CCOC(=O)/C(C#N)=C/c1cccn1Cc1ccc2c(c1)OCO2
inactive: dose: 25.0 mg/kg/injection, schedule: Q04DX002 (ip), vehicle: saline 101 % of control | dose: 50.0 mg/kg/injection, schedule: Q04DX002 (ip), vehicle: saline 105 % of control | dose: 100.0 mg/kg/injection, schedule: Q04DX002 (ip), vehicle: saline 105 % of control
